Data reported in patent US20070021501A1, “Methods of treating epileptogenesis” (priority 2005, published 2007).
Where “and” joins values, the source holds several entries; their conditions need not be identical. Equal entries are not always repeated.

Key:
[1] = system: lithium-pilocarpine model of temporal lobe epilepsy in the rat; assay: Latency to and frequency of spontaneous seizures, video recording (Example 2); type: in vivo, Sprague-Dawley rats; conditions: DZP 2.5 mg/kg i.m.
Protocol: The effects of DZP and the 4 doses of TC on epileptogenesis were investigated by daily video recording of the animals for 10 h per day. Video recording was performed for 4 weeks during which the occurrence of the first seizure was noted as well as the total number of seizures over the whole period. Animals were then taken off the video recording system and kept for 4 additional weeks in our animal facilities before they were sacrificed after a total period of 8 weeks of epilepsy.

[2] = system: lithium-pilocarpine model of temporal lobe epilepsy in the rat; assay: Mossy fiber sprouting in hippocampus, Timm staining (Example 1); type: in vivo; conditions: DZP (n=9)
Protocol: At 2 months after the onset of spontaneous recurrent seizures, mossy fiber sprouting was examined on rats in the chronic period exposed to the test compound or DZP and in 3 saline-saline rats. Animals were deeply anaesthetized and perfused transcardially with saline followed by 100 ml of 1.15% (w/v) Na2S in 0.1 M phosphate buffer, and 100 ml of 4% (v/v) formaldehyde in 0.1 M phosphate buffer. Brains were removed from skull, post-fixed in 4% formaldehyde during 3-5 h and 40 μm sections were cut on a sliding vibratome and mounted on gelatin-coated slides.
The following day, sections were developed in the dark in a 26° C. solution of 50% (w/v) arabic gum (160 ml), sodium citrate buffer (30 ml), 5.7% (w/v) hydroquinone (80 ml) and 10% (w/v) silver nitrate (2.5 ml) during 40-45 min. The sections were then rinsed with tap water at 40° C. during at least 45 min, rinsed rapidly with distilled water and allowed to dry. They were dehydrated in ethanol and coverslipped.
Mossy fiber sprouting was evaluated according to criteria previously described in dorsal hippocampus (Cavazos et al., 1991, J Neurosci 11:2795-2803.), which are follows: 0—no granules between the tips and crest of the DG; 1—sparse granules in the supragranular region in a patchy distribution between the tips and crest of DG; 2—more numerous granules in a continuous distribution between the tips and crest of DG; 3—prominent granules in a continuous pattern between tips and crest, with occasional patches of confluent granules between tips and crest; 4—prominent granules that form a confluent dense laminar band between tips and crest and 5—confluent dense laminar band of granules that extends into the inner molecular layer.

[3] = system: lithium-pilocarpine model of temporal lobe epilepsy in the rat; assay: Quantification of cell densities in hippocampus, thalamus and cortex after Li-pilo SE (Example 1); type: in vivo; conditions: DZP
Protocol: Quantification of cell densities was performed at 6 days after SE on 8 pilo-DZP, 8 pilo-TC10, 7 pilo-TC30, 7 pilo-TC60, and 6 saline-saline rats.
Cell counts were performed twice in a blind manner and were the average of at least 3 values from 2 adjacent sections in each individual animal. Counts involved only cells larger than 10 μm, smaller ones being considered as glial cells.
For the comparison of the characteristics of SE in pilo-saline and pilo-test compound animals, a non-paired Student's t-test was used. The comparison between the number of rats seizing in both groups was performed by means of a Chi square test. For neuronal damage, statistical analysis between groups was performed using ANOVA followed by a Fisher's test for multiple comparisons using the Statview software (Fisher R A, 1946a, Statistical Methods for Research Workers (10th edition) Oliver & Boyd, Edinburgh; Fisher R A, 1946b, The Design of Experiments (4th edition) Oliver & Boyd, Edinburgh) Behavioral and EEG Characteristics of Lithium-pilocarpine Status Epilepticus

[4] = system: lithium-pilocarpine model of temporal lobe epilepsy in the rat; assay: Quantification of cell densities (neuronal counting) 14 days after Li-pilo SE (Example 2); conditions: for number of neuronal cell bodies: DZP 2.5 mg/kg i.m., 14 days after li-pilo SE
Protocol: All rats received lithium chloride (3 meq/kg, i.p., Sigma, St Louis, Mo., U.S.A.) and about 20 h later, all animals received also methylscopolamine bromide (1 mg/kg, s.c., Sigma) that was administered to limit the peripheral effects of the convulsant. […] The effects of increasing doses of TC were studied in 5 groups of rats. […] The control group received vehicle instead of pilocarpine and TC.
For neuronal counting, animals were deeply anesthetized with 1.8 g/kg pentobarbital (Dolethal®, Vétoquinol, Lure, France). Brains were then removed and frozen. Serial 20 μm slices were cut in a cryostat, air-dried during several days before thionine staining. […] The grid of counting was placed on a well defined area of the cerebral structure of interest and counting was carried out with a microscopic enlargement of 200- or 400-fold defined for each single cerebral structure. Cell counts were performed twice on each side of three adjacent sections for each region by a single observer unaware of the animal's treatment. The number of cells obtained in the 12 counted fields in each cerebral structure was averaged. This procedure was used to minimize the potential errors that could result from double counting leading to overestimation of cell numbers. […] Counts involved only neurons with cell bodies larger than 10 μm. Cells with small cell bodies were considered as glial cells and were not counted.
For neuronal damage and epileptogenesis, statistical analysis between groups was performed by means of a one-way analysis of variance followed by a post-hoc Dunnett or Fisher test using the Statistica software.

[5] = system: lithium-pilocarpine status epilepticus in the rat; assay: EEG patterns during and after Li-pilo SE (Example 1); type: in vivo; conditions: DZP 2 mg/kg i.m.; cortex and hippocampus
Protocol: Male Wistar rats weighing 225-250 g, provided by Janvier Breeding Center (Le Genest-St-lste, France) were housed under controlled standard conditions (light/dark cycle, 7.00 a.m.-7.00 p.m. lights on), with food and water available ad libitum. All animal experimentation was performed in accordance with the rules of the European Communities Council Directive of Nov. 24, 1986 (86/609/EEC), and the French Department of Agriculture (License N^o 67-97). For electrode implantation, rats were anesthetized by an i.p. injection of 2.5 mg/kg diazepam (DZP, Valium, Roche, France) and […] ketamine chlorhydrate (Imalgene 1000, Rhone Merrieux, France). Four single-contact recording electrodes were placed on the skull, over the parietal cortex, two on each side.
The bilateral EEG cortical activity was recorded during the whole duration of SE and behavioral changes were noted.
The effects of the test compound on the EEG and on the latency to occurrence of SRS were investigated by daily video recording of the animals for 10 h per day and the recording of the electrographic activity twice a week for 8 h.

[6] = system: lithium-pilocarpine status epilepticus in the rat; assay: Mortality over the first 48 h after Li-pilo SE (Example 2); type: in vivo, Sprague-Dawley rats; conditions: DZP 2.5 mg/kg i.m.
Protocol: Adult male Sprague-Dawley rats provided by Janvier Breeding Center (Le Genest-St-lsle, France) were housed under controlled, uncrowded standard conditions at 20-22° C. (light/dark cycle, 7.00 a.m.-7.00 p.m. lights on), with food and water available ad libitum. All animal experimentation was performed in accordance with the rules of the European Communities Council Directive of Nov. 24, 1986 (86/609/EEC), and the French Department of Agriculture (License N^o 67-97).

SMILES: CN1C(=O)CN=C(c2ccccc2)c2cc(Cl)ccc21 [DZP, diazepam]
- frequency of spontaneous seizures over the four weeks of recording [1]: tendency to be higher
- mean Timm score in the upper blade of the dentate gyrus [2]: 2.8±0.8
- damage compared to saline-saline rats ([3]; dentate gyrus granule cell layer): did not show visible damage
- damage compared to saline-saline rats ([3]; dorsal entorhinal cortex layer II): 9%
- damage compared to saline-saline rats ([3]; dorsal entorhinal cortex layers III-IV): 15%
- cell loss compared to saline-saline rats ([3]; hilus of dentate gyrus): 73%
- cell loss compared to saline-saline rats ([3]; hippocampus CA1 pyramidal cell layer): 70% and 75%
- cell loss compared to saline-saline rats ([3]; hippocampus CA3a): 54%
- cell loss compared to saline-saline rats ([3]; hippocampus CA3b): 31%
- cell loss compared to saline-saline rats ([3]; lateral thalamic nucleus): 91%
- cell loss compared to saline-saline rats ([3]; mediodorsal thalamic nucleus): 56%
- cell loss compared to saline-saline rats ([3]; piriform cortex layer II): 53%
- cell loss compared to saline-saline rats ([3]; piriform cortex layers III-IV): total
- damage compared to saline-saline rats ([3]; ventral entorhinal cortex layer II): totally preserved
- cell loss compared to saline-saline rats ([3]; ventral entorhinal cortex layers III-IV): 44%
- number of neuronal cell bodies ([4]; Amygdala Medial, dorsal anterior): 40.0 ± 2.5
- number of neuronal cell bodies ([4]; Amygdala Medial, ventral posterior): 21.8 ± 2.4
- number of neuronal cell bodies ([4]; Cerebral cortex Entorhinal, layer II, dorsal): 23.5 ± 0.7
- number of neuronal cell bodies ([4]; Cerebral cortex Entorhinal, layer II, ventral): 21.7 ± 1.3
- number of neuronal cell bodies ([4]; Cerebral cortex Entorhinal, layer III/IV, dorsal): 22.3 ± 0.5
- number of neuronal cell bodies ([4]; Cerebral cortex Entorhinal, layer III/IV, ventral): 7.7 ± 2.3
- number of neuronal cell bodies ([4]; Cerebral cortex Piriform, layer II, dorsal): 12.6 ± 4.2
- number of neuronal cell bodies ([4]; Cerebral cortex Piriform, layer II, ventral): 3.6 ± 0.7
- number of neuronal cell bodies ([4]; Cerebral cortex Piriform, layer III): 1.2 ± 1.2
- neurons surviving ([4]; DZP, all parts of the entorhinal cortex (range), 14 days after SE): 27-81%
- neuronal loss (drop out) compared to control rats ([4]; DZP, amygdala basolateral nucleus, 14 days after SE): 73%
- neuronal damage compared to control rats ([4]; DZP, amygdala central nucleus, 14 days after SE): no neuronal damage
- neuronal loss (drop out) compared to control rats ([4]; DZP, amygdala medial dorsal anterior nucleus, 14 days after SE): 53%
- neuronal loss compared to control rats ([4]; DZP, amygdala medial ventral posterior nucleus, 14 days after SE): 38%
- neuronal damage compared to control rats ([4]; DZP, dentate gyrus granule cell layer, 14 days after SE): did not show overt damage
- neuronal damage compared to control saline-treated rats ([4]; DZP, dorsal entorhinal cortex layer II, 14 days after SE): 18%
- neuronal damage compared to control saline-treated rats ([4]; DZP, dorsal entorhinal cortex layers III-IV, 14 days after SE): 24%
- neuronal loss compared to control rats ([4]; DZP, hilus of dentate gyrus, 14 days after SE): 65% and 66%
- neuronal loss (drop out) compared to control rats ([4]; DZP, hippocampus CA1 pyramidal cell layer, 14 days after SE): 85%
- neuronal loss compared to control rats ([4]; DZP, hippocampus CA3 region, 14 days after SE): 40%
- neuronal loss compared to control saline-treated rats ([4]; DZP, piriform cortex dorsal layer II, 14 days after SE): 66%
- neuronal loss compared to control saline-treated rats ([4]; DZP, piriform cortex layer III, 14 days after SE): 94%
- neuronal loss compared to control saline-treated rats ([4]; DZP, piriform cortex ventral layer II, 14 days after SE): 89%
- neuronal loss (drop out) compared to control rats ([4]; DZP, thalamus central medial nucleus, 14 days after SE): 34%
- neuronal loss (drop out) compared to control rats ([4]; DZP, thalamus dorsolateral medial dorsal nucleus, 14 days after SE): 40%
- neuronal loss (drop out) compared to control rats ([4]; DZP, thalamus mediodorsal central nucleus, 14 days after SE): 18%
- neuronal loss (drop out) compared to control rats ([4]; DZP, thalamus mediodorsal lateral nucleus, 14 days after SE): 24%
- neuronal loss compared to control rats ([4]; DZP, thalamus mediodorsal nucleus, 14 days after SE): 49%
- neuronal loss compared to control rats ([4]; DZP, thalamus ventral lateral division of the dorsolateral nucleus, 14 days after SE): 90%
- neuronal damage compared to control saline-treated rats ([4]; DZP, ventral entorhinal cortex layer II, 14 days after SE): 22% and 19%
- neuronal damage compared to control saline-treated rats ([4]; DZP, ventral entorhinal cortex layers III/IV, 14 days after SE): 74% and 73%
- number of neuronal cell bodies ([4]; Hippocampus CA1 area): 10.9 ± 1.9
- number of neuronal cell bodies ([4]; Hippocampus CA3 area): 31.3 ± 2.9
- number of neuronal cell bodies ([4]; Hippocampus Hilus): 33.5 ± 3.0
- number of neuronal cell bodies ([4]; Thalamus Central medial): 74.2 ± 7.4
- number of neuronal cell bodies ([4]; Thalamus Dorsolateral, medial, dorsal): 61 ± 6.3
- number of neuronal cell bodies ([4]; Thalamus Dorsolateral, ventral lateral): 9.7 ± 2.5
- number of neuronal cell bodies ([4]; Thalamus Mediodorsal central): 26.3 ± 1.8
- number of neuronal cell bodies ([4]; Thalamus Mediodorsal lateral): 19.6 ± 0.8
- number of neuronal cell bodies ([4]; Thalamus Mediodorsal medial): 16.4 ± 1.9
- EEG by 6-7 h of SE [5]: spiking activity was still present in the cortex and the hippocampus
- mortality over the first 48 h after SE ([6]; group devoted to cell counting at 14 days (4/11)): 36%
- mortality over the first 48 h after SE ([6]; group devoted to latency to SRS and late cell counting (1/14)): 7%
